Results published in patent US10081737B2, “Method for producing curing agent of coating and its application on coating” (SHANGHAI YAO HE BIOCHEMICAL TECHNOLOGY CO., LTD., priority 2016, dated 2018).

Columns and labels:
Type in all cases: physicochemical
[1] = MEK resistance tests, 24 h, gloss loss of coating films; settings: coating film containing the named curing agent
Protocol: (§1) To verify properties of the product of the invention, APLUS101, APLUS102, HAA and TGIC are individually mixed with the polyester powder and additives. These curing agents are added in amounts of 2-8 wt % of the polyester powder coatings.
(§2) The coatings are tested in the form of films and the tests are carried out in the same conditions.

[2] = Heat resistance of coating films, 220° C., 15 min; settings: color difference compared with the color at 200° C., 10 min; less color differences indicate better properties
Protocol: as §1, §2

[3] = Flow and leveling of the powder coatings; settings: polyester powder coating containing the named curing agent
Protocol: as §1, §2

[4] = QUV-A tests, 500 h, gloss retention of coating films; settings: coating film containing the named curing agent
Protocol: as §1, §2

[5] = Neutral salt-spray tests, 300 h, on coating films; settings: corrosion of the coating film; cell text wraps over r6-r8 (Slight corrosion / No corrosion)
Protocol: as §1, §2

[6] = Gloss of the polyester powder coating films; settings: polyester powder coating film containing the named curing agent (compositions of Table 1)
Protocol: as §1, §2

| MEK resistance tests, 24 h, gloss loss (%) [1] | Heat resistance, 220° C., 15 min [2] | Flow and leveling (cm) [3] | QUV-A tests, 500 h, gloss retention (%) [4] | Gloss of the films [6] | Structure (SMILES) | Neutral salt-spray tests, 300 h [5] |
| --- | --- | --- | --- | --- | --- | --- |
| 8.16% | 1.15 | 3.1 cm | 72.7% | 84.5 | O=C(CCCCC(=O)N(CCO)CCO)N(CCO)CCO [HAA, N,N,N′,N′-Tetrakis (2-hydroxyethyl)adipamide] | Slight |
| 10.25% | 0.59 | 3.8 cm | 75.8% | 87.6 | O=c1n(CC2CO2)c(=O)n(CC2CO2)c(=O)n1CC1CO1 (stereo not drawn) [TGIC, 1,3,5-Triglycidyl isocyanurate] | Slight |
